Consider one compound from PMC5991599, “Anti‐tumor efficacy of a novel CLK inhibitor via targeting RNA splicing and MYC‐dependent vulnerability” (EMBO Molecular Medicine, 2018).

The test system of one series is DB. In words: Panel of growth inhibition assays (OncoPanel 240). The conditions noted are these: Homo sapiens, 72 h, lymphoma, read-out: IC50 (Oncopanel, cell count). It is filed as cell-based. The method, then:
(§1) The KINOMEScan‐based kinase selectivity assay was performed at the DiscoverX Corporation (Fremont, CA, USA). The panel of growth inhibition assay and subsequent bioinformatics analysis (Fig EV1) were performed at Eurofins Inc. (St. Charles, MO, USA), using OncoPanel 240 or 60. Details of the procedures of cell proliferation assay, caspase‐3/7 activity assay, immunoblotting, and immunohistochemistry are described in Appendix Supplementary Methods.
(§2) Panel of growth inhibition assay and subsequence bioinformatics analysis (at […]
(§3) A growth inhibition assay panel and subsequent bioinformatics analysis were performed at Eurofins Inc. (MO, U.S.A.) by utilizing Oncopanel240 or 60.
(§4) According to the study reports from Eurofins Inc., cells were seeded into 384 well plates at a single cell density in standardized media. After 24 hours, the test compounds were added and the plate was incubated continuously for 72 hours. Cells were then fixed and stained to visualize nuclei. The number of nuclei was counted and normalized.
(§5) Cellular response parameters were calculated using nonlinear regression to a sigmoidal single-site dose response model and the IC50 value of each cell line was calculated.
(§6) Genomic features were binned into six distinct categories, each of which was considered to be a “biomarker-positive” grouping: Mutated (non-synonymous, coding, and non-coding mutations), Amplified, Deleted, Overexpressed, Mutated or amplified (gain-of-function), and Mutated or deleted (loss-of-function). Two orthogonal significance tests were performed on each genomic feature as follows.
(§7) Student’s t-test: For each genomic feature within each of the six above categories, IC50 cell count values for biomarker-positive and biomarker-negative groups were […]

Another series relates to HEL9217. Kind of series: Panel of growth inhibition assays (OncoPanel 240). It counts as cell-based. The conditions noted are these: Homo sapiens, HEL 92.1.7; 72 h; leukemia; read-out: IC50 (Oncopanel, cell count). How it is done: as §1, §2, §3, §4, §5, §6, §7
In the next series the test system is BV173. Kind of series: Panel of growth inhibition assays (OncoPanel 240). It is filed as cell-based. The conditions noted are these: Homo sapiens, BV-173; 72 h; leukemia; read-out: IC50 (Oncopanel, cell count). The method, then: as §1, §2, §3, §4, §5, §6, §7
The subject of another series is THP1. Kind of series: Panel of growth inhibition assays (OncoPanel 240). It counts as cell-based. The conditions noted are these: Homo sapiens, THP-1; 72 h; leukemia; read-out: IC50 (Oncopanel, cell count). How it is done:
as §1, §2, §3, §4, §5, §6, §7

Another series has as its system HT. In words: Panel of growth inhibition assays (OncoPanel 240). It counts as cell-based. The conditions noted are these: Homo sapiens, 72 h, lymphoma, read-out: IC50 (Oncopanel, cell count). How it is done: as §1, §2, §3, §4, §5, §6, §7
Another series relates to RPMI8226. In words: Panel of growth inhibition assays (OncoPanel 240). It counts as cell-based. The conditions noted are these: Homo sapiens, RPMI-8226; 72 h; myeloma; read-out: IC50 (Oncopanel, cell count). The method, then:
as §1, §2, §3, §4, §5, §6, §7

Another series deals with CMLT1. In words: Panel of growth inhibition assays (OncoPanel 240). The conditions noted are these: CML-T1; 72 h; leukemia; read-out: IC50 (Oncopanel, cell count). It counts as cell-based. The method, then:
as §1, §2, §3, §4, §5, §6, §7

Another series relates to RAJI. In words: Panel of growth inhibition assays (OncoPanel 240). It is filed as cell-based. The conditions noted are these: Homo sapiens, 72 h, lymphoma, read-out: IC50 (Oncopanel, cell count). How it is done: as §1, §2, §3, §4, §5, §6, §7
Series [1] can be described thus: Pharmacokinetics evaluation, unbound plasma concentration after oral administration. It counts as in vivo. The conditions noted are these: nude mice, mean, calculated using protein binding. The method, then:
The black dotted line indicates the relative ATP value prior to treatment (Day 0). • C The number of AS events modulated by T‐025 treatment for 6 h in MDA‐MB‐468 cells. The numbers of AS events with a BF > 20 and |ΔPSI| > 0.1 were counted and categorized according to the AS type (SE, skipped exon; RI, retained intron; A5′SS, alternative 5′‐splice‐site; A3′SS, alternative 3′‐splice‐site; MEE, mutually exclusive exon; AFE, alternative first exon; ALE, alternative last exon). • D–F MDA‐MB‐468 xenograft tumors treated with 50 mg/kg of T‐025 were sampled and analyzed by immunohistochemistry […], immunoblotting (E), or RT–PCR (F). Representative images of pCLK2 stained tumors and scale bar (30 μm) are shown. Also shown: The mean unbound plasma T‐025 concentration was calculated using protein binding after oral administration. • G, H Anti‐tumor efficacy of T‐025 in MDA‐MB‐468 xenograft models. T‐025 was administered twice daily on 2 days per week (red arrows). Tumor volume (G) and body weight (H) during the efficacy study are shown as means ± s.e.m. (n = 5). Data information: In (B, D, and F), data are shown as the means ± s.d. of three independent experiments (n = 3). In (G and H), an unpaired Student's t‐test was performed.Source data are available online for this figure. TEXT PRINTED IN THE PICTURE: (D) T-025: Unbound plasma Conc. (nmol/L): 554 (50 mg/kg; 2 h); Unbound plasma Conc. (nmol/L): 97 (50 mg/kg; 4 h); Unbound plasma Conc. (nmol/L): 105 (50 mg/kg; 8 h); Unbound plasma Conc. (nmol/L): 0 (50 mg/kg; 24 h)
Then, we evaluated T‐025 in an animal model.

For a further series, the target named is HIPK2 (Homo sapiens, UniProt Q9H2X6). In words: Immunoblotting of pS46 p53, direct phosphorylation site of HIPK2, in cells. It counts as cell-based. The conditions noted are these: up to 1000 nmol/L; immunoblot from Fig 2A samples (MDA-MB-468, 6 h). The source says: EMBO Molecular Medicine - Peer Review Process File
PRS6KB1 was observed by RNAi of CLK2 and T-025.
It had already been reported that ASs induced by […]
that T-025 and depletion of CLKs caused a similar splicing effect.
Furthermore, T3, another CLK […]
and increased MYC-dependent vulnerability (Fig EV4). […]
phosphorylation, at a direct phosphorylation site of HIPK2, up to 1000 nmol/L (see below, from Fig.
In quantifying the bands of pCLK2, the background of this immunoblotting around 50 kDa was relatively high and the band was shifted in the T-025 treated samples (below); thus, we could not […]
BF is undefined and ∆PSI is not clearly defined. If ∆PSI is really "percentage splice-in", none of the effects is significant. The normalization of ∆PSI is unclear. In Figure 2E, the difference between […]
According to the MISO software, the Bayer Factor (BF) represents the weight of the evidence in the data in favor of differential expression versus the weight of evidence not in favor. For example, a © European Molecular Biology Organization 13 […]

The next series deals with NCI-H1048 xenografts. In words: Efficacy study in NCI-H1048 xenograft model. The conditions noted are these: 50 mg/kg, twice weekly regimen. It is filed as in vivo, Balb/c nude mice. The method, then:
MDA‐MB‐468 (5 × 10^6), NCI‐H1048 (5 × 10^6), or MV‐4‐11 (2 × 10^6) cells in Matrigel were subcutaneously inoculated into the left flanks of Balb/c nude mice (7‐ to 8‐week‐old females). When xenografted tumors grew to a sufficient volume, the tumor diameter was measured and its volume was calculated as follows:
Tumor volume=long diameter×short diameter×short diameter×(1/2)
Mice having a tumor of size approximately 200 mm^3 were used in efficacy or in vivo pharmacodynamics studies. T‐025 was dissolved in 0.5% methylcellulose solution. For the efficacy study, after randomized grouping, mice were treated with T‐025 twice daily once or twice weekly for 2 or 3 weeks. The mouse tumor volume and body weight were measured every 2–3 days.

Usually IC50 stands for the midpoint of a concentration-inhibition curve.

HIPK2, sequence (Q9H2X6 whole entry): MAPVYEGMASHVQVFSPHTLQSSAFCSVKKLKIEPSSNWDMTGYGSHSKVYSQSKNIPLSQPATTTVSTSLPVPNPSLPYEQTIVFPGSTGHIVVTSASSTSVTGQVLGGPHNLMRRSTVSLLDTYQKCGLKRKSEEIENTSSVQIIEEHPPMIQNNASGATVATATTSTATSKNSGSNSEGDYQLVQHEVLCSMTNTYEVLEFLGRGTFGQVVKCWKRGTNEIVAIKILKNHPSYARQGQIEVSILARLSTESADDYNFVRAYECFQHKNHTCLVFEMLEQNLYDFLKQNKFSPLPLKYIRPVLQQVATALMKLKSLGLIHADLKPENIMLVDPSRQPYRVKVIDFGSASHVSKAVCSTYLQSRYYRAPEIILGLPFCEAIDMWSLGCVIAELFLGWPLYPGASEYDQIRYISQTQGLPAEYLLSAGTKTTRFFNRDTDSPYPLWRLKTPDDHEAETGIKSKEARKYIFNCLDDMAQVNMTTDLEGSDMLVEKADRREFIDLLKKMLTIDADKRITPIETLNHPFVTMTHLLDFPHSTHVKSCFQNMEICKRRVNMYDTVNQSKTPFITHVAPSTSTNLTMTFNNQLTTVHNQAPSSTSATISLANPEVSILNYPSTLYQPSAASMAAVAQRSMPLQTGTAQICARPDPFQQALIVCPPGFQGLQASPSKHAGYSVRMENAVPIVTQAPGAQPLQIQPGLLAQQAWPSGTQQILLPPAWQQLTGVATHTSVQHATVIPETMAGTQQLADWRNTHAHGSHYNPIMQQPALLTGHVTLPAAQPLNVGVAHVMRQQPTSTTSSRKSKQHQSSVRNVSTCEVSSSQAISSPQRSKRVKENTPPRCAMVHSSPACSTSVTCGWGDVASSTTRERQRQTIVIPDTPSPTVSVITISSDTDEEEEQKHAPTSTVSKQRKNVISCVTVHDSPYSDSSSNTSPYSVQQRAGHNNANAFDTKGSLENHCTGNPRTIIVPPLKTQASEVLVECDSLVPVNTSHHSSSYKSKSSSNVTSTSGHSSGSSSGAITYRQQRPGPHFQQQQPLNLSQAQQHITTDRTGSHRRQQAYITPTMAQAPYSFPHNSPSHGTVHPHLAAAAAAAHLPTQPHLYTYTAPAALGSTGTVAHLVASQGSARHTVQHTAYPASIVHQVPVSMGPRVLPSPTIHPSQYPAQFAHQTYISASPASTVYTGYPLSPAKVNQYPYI

For the compound `CNc1nc(NCc2ncccn2)c2c(-c3ccc4ncccc4c3)c[nH]c2n1` [T-025, N ^2‐methyl‐N ^4‐[pyrimidin‐2‐ylmethyl]‐5‐[quinolin‐6‐yl]‐7H‐pyrrolo[2,3‐d]pyrimidine‐2,4‐diamine], the IC50 came to 43.3 nM in the series with DB; 38.3 nM with HEL9217; 21.8 nM with BV173; 228 nM in the series with THP1; 228 nM with HT; 99.3 nM in the series on RPMI8226. In addition, the IC50 in the series with CMLT1 was 69.7 nM; with RAJI, 84.7 nM. Besides, the “Unbound plasma Conc.” value in series [1] (oral 50 mg/kg, 8 h) was 104 nM. For the same compound, the concentration at 2 h in series [1] (nude, mouse, plasma, po, 50 mg/kg, 2 h, read-out: Unbound plasma Conc.) was 554 nM. In addition, the concentration at 4 h in [1] (nude, mouse, plasma, po, 50 mg/kg, 4 h, read-out: Unbound plasma Conc.) is 97 nM. The concentration at 8 h in series [1] (nude, mouse, plasma, po, 50 mg/kg, 8 h, read-out: Unbound plasma Conc.) is 105 nM. The concentration at 24 h in series [1] (nude, mouse, plasma, po, 50 mg/kg, 24 h, read-out: Unbound plasma Conc.) is 0 nM. Besides, on HIPK2, the “inhibition of HIPK2 in cells (pS46 p53 phosphorylation)” value was “did not inhibit HIPK2”. In the series with NCI-H1048 xenografts, the “anti-tumor efficacy, tumor volume” value is given as “exhibited in vivo anti‐tumor efficacy”. Moreover, the body weight loss result in the series on NCI-H1048 xenografts was “no significant body weight loss”.
